“And” between values parts separate entries of the source, which are not always exact repeats. Equal entries are not always repeated. The source made the active and inactive calls. No rule for the calls is given here.
Tested on: rodent lifetime carcinogenesis bioassay, tumor incidence TD50
Experiment: chronic cancer bioassays in animals – CPDB, compiled studies (AID 1745844)

Q: What does the source list for CN(C)CCN(Cc1ccco1)c1ccccn1?
A: carcinogen call (rat, strain Fischer 344, females, in drinking water, site: liver, lesion: several types, types named in the paper, dosed 94 weeks, study length 130 weeks): negative (inactive); TD50 (rat, strain Fischer 344, females, in drinking water, site: thyroid follicle, lesion: several types, types named in the paper, dosed 94 weeks, study length 130 weeks): 559 mg/kg/day (inactive); carcinogen call (rat, strain Fischer 344, males, in drinking water, site: liver, lesion: several types, types named in the paper, dosed 94 weeks, study length 115 weeks): negative (inactive)

Q: What does the source list for CCCc1ccc2c(c1)OCO2?
A: TD50 (mouse, strain B6AKF1, females, oral dosing, site: any site (literature study), lesion: several types, types named in the paper, dosed 81 weeks, study length 81 weeks): 305 mg/kg/day; TD50 (mouse, strain B6AKF1, females, oral dosing, site: liver, lesion: angioma, dosed 81 weeks, study length 81 weeks): 1400 mg/kg/day; TD50 (mouse, strain B6AKF1, females, oral dosing, site: lung, lesion: adenoma, dosed 81 weeks, study length 81 weeks): 739 mg/kg/day; TD50 (mouse, strain B6AKF1, females, oral dosing, site: stomach, lesion: papilloma, dosed 81 weeks, study length 81 weeks): 84.7 mg/kg/day; TD50 (mouse, strain B6AKF1, males, oral dosing, site: any site (literature study), lesion: several types, types named in the paper, dosed 81 weeks, study length 81 weeks): 86.6 mg/kg/day; TD50 (mouse, strain B6AKF1, males, oral dosing, site: liver, lesion: hepatoma, dosed 81 weeks, study length 81 weeks): 117 mg/kg/day; TD50 (mouse, strain B6AKF1, males, oral dosing, site: lung, lesion: adenoma, dosed 81 weeks, study length 81 weeks): 323 mg/kg/day; TD50 (mouse, strain B6AKF1, males, oral dosing, site: lung, lesion: several types, types named in the paper, dosed 81 weeks, study length 81 weeks): 448 mg/kg/day; TD50 (mouse, strain B6C3F1, females, oral dosing, site: any site (literature study), lesion: several types, types named in the paper, dosed 81 weeks, study length 81 weeks): 170 mg/kg/day; TD50 (mouse, strain B6C3F1, females, oral dosing, site: lung, lesion: adenoma, dosed 81 weeks, study length 81 weeks): 230 mg/kg/day; TD50 (mouse, strain B6C3F1, males, oral dosing, site: any site (literature study), lesion: several types, types named in the paper, dosed 81 weeks, study length 81 weeks): 107 mg/kg/day; TD50 (mouse, strain B6C3F1, males, oral dosing, site: liver, lesion: hepatoma, dosed 81 weeks, study length 81 weeks): 90 mg/kg/day; TD50 (mouse, strain B6C3F1, males, oral dosing, site: lung, lesion: adenoma, dosed 81 weeks, study length 81 weeks): 358 mg/kg/day; TD50 (rat, strain Osborne-Mendel, both sexes, in feed, site: esophagus, lesion: several types, types named in the paper, dosed 104 weeks, study length 104 weeks): 143 mg/kg/day

Q: Which carcinogen call (rat, strain Fischer 344, males, in drinking water, site: any site (literature study), lesion: several types, types named in the paper, dosed 50 weeks, study length 114 weeks) does the source give for CN(N=O)c1ccc([N+](=O)[O-])cc1 here?
A: negative (inactive)

Q: What about the TD50 (rat, strain Fischer 344, males, in drinking water, site: liver, lesion: hyperplastic nodule, dosed 50 weeks, study length 114 weeks) of the same compound?
A: 5.87 mg/kg/day (inactive)

Q: With Cc1cccc2ccccc12 as the compound, how does the TD50 (mouse, strain B6C3F1, females, in feed, site: liver, lesion: hepatocellular adenoma, dosed 81 weeks, study length 81 weeks) read?
A: 979 mg/kg/day

Q: And the TD50 (mouse, strain B6C3F1, females, in feed, site: liver, lesion: hepatocellular carcinoma, dosed 81 weeks, study length 81 weeks)?
A: 6040 mg/kg/day

Q: What about the TD50 (mouse, strain B6C3F1, males, in feed, site: any site (literature study), lesion: one or several types, types not named, dosed 81 weeks, study length 81 weeks) of the same compound?
A: 2260 mg/kg/day

Q: What about the TD50 (mouse, strain B6C3F1, males, in feed, site: lung, lesion: alveolar/bronchiolar adenoma, dosed 81 weeks, study length 81 weeks) of the same compound?
A: 244 mg/kg/day

Q: And the TD50 (mouse, strain B6C3F1, males, in feed, site: lung, lesion: alveolar/bronchiolar carcinoma, dosed 81 weeks, study length 81 weeks)?
A: 1830 mg/kg/day

Q: What about the TD50 (mouse, strain B6C3F1, males, in feed, site: lung, lesion: several types, types named in the paper, dosed 81 weeks, study length 81 weeks) of the same compound?
A: 201 mg/kg/day

Q: With CCC=C(CC)[N+](=O)[O-] as the compound, how does the TD50 (mouse, strain Swiss Webster, females, inhaled, site: lung, lesion: adenocarcinoma, dosed 62 weeks, study length 62 weeks) read?
A: 0.363 mg/kg/day and 0.768 mg/kg/day

Q: And the TD50 (mouse, strain Swiss Webster, females, inhaled, site: lung, lesion: several types, types named in the paper, dosed 62 weeks, study length 62 weeks)?
A: 0.687 mg/kg/day

Q: And the TD50 (mouse, strain Swiss, both sexes, inhaled, site: lung, lesion: adenocarcinoma, dosed 62 weeks, study length 62 weeks)?
A: 0.346 mg/kg/day

Q: And the TD50 (rat, strain CFN, both sexes, inhaled, site: lung, lesion: undifferentiated carcinoma, dosed 158 weeks, study length 158 weeks)?
A: 8.66 mg/kg/day

Q: For NNC(N)=S, which carcinogen call (mouse, strain Swiss albino, females, in drinking water, site: liver, lesion: hepatoma, dosed 123 weeks, study length 124 weeks) is on record?
A: negative (inactive)

Q: And the carcinogen call (mouse, strain Swiss albino, females, in drinking water, site: lung, lesion: one or several types, types not named, dosed 123 weeks, study length 124 weeks)?
A: negative (inactive)

Q: What about the carcinogen call (mouse, strain Swiss albino, males, in drinking water, site: liver, lesion: hepatoma, dosed 115 weeks, study length 121 weeks) of the same compound?
A: negative (inactive)

Q: What about the carcinogen call (mouse, strain Swiss albino, males, in drinking water, site: lung, lesion: one or several types, types not named, dosed 115 weeks, study length 121 weeks) of the same compound?
A: negative (inactive)

Q: What about the TD50 (rat, strain Charles River CD (Sprague-Dawley), females, in feed, site: mammary gland, lesion: one or several types, types not named, dosed 78 weeks, study length 104 weeks) of the same compound?
A: 3.07 mg/kg/day
